Data: ChEMBL document CHEMBL3508693 (2016)

What was measured:
[1] = Excretion (168h) of radioactivity in urine following intravenous administration of [14C] aliskiren hemifumarate at 10 mg.Kg-1 level in rat; type: ADME, organism-based, Lister-Hooded; conditions: in vivo
Cytochrome P450 4F2 = molecular target: T1, Cytochrome P450 4F2 (Homo sapiens, UniProt P78329); test: Metabolic clearance (ul.min.nmol-1 CYP) of aliskiren hemifumarate for CYP4F2 was determined in human liver microsome incubated with [14C]SPP100 hemifumarate; type: ADME; conditions: microsomes
T1 sequence (P78329 whole entry): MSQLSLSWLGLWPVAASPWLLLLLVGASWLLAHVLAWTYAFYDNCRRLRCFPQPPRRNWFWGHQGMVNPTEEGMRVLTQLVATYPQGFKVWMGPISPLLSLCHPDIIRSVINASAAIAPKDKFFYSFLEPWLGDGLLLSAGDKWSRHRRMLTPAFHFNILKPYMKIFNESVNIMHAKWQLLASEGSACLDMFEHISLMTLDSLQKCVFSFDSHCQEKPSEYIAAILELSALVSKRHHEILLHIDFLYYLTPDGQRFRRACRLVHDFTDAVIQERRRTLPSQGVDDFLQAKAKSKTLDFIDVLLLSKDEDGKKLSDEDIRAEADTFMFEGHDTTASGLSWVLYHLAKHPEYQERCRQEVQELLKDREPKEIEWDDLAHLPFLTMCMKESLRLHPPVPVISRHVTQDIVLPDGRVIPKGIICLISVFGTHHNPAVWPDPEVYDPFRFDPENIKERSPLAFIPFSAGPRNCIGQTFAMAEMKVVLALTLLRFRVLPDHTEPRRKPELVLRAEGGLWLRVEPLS

[2] = Concentration of radioactivity in the colon wall following repeated oral administration of [14C] aliskiren hemifumarate at 100 mg.Kg-1 level studied at 2h after 7th dose in rat; type: ADME, organism-based, Albino HAN:WIST; conditions: in vivo
[3] = Excretion of radioactivity (72-96h) in urine following single oral dose of 100 mg.Kg-1 [14C] aliskiren hemifumarate in rat; type: ADME, organism-based, Albino HAN:WIST; conditions: in vivo
[4] = Excretion (48h) of radioactivity in faeces following oral administration of [14C] aliskiren hemifumarate at 100 mg.Kg-1 level in rat; type: ADME, organism-based, Lister-Hooded, Feces; conditions: in vivo
[5] = Excretion (0-168h) of radioactivity in faeces following intravenous administration of [14C] aliskiren hemifumarate at 1 mg.Kg-1 level in marmoset; type: ADME, organism-based, Callithrix jacchus, Feces; conditions: in vivo
[6] = Excretion of radioactivity (24-48h) in urine following single intravenous dose of 10 mg.Kg-1 [14C] aliskiren hemifumarate in mouse; type: ADME, organism-based, TgRasH2; conditions: in vivo
[7] = Concentration of radioactivity in the liver following repeated oral administration of [14C] aliskiren hemifumarate at 100 mg.Kg-1 level studied at 24h after 7th dose in rat; type: ADME, organism-based, Albino HAN:WIST; conditions: in vivo
[8] = Tmax of [14C] aliskiren hemifumarate following single intravenous dose of [14C] aliskiren hemifumarate at 10 mg.Kg-1 level in mouse; type: ADME, organism-based, TgRasH2, Plasma; conditions: in vivo
[9] = Concentration of radioactivity in carcass following intravenous administration of [14C] aliskiren hemifumarate at 10 mg.Kg-1 level measured on day 7 in rat; type: ADME, organism-based, Lister-Hooded; conditions: in vivo
[10] = % of radioactivity recovered as aliskiren in plasma following intravenous administration of [14C] aliskiren hemifumarate at 10 mg.Kg-1 level in rat; type: ADME, organism-based, Albino HAN:WIST; conditions: in vivo
[11] = Terminal elimination half-life of SPP100 following single oral dose of SPP100 300 mg capsule studied in healthy human; type: ADME, organism-based; conditions: plasma
[12] = % SPP100 (0-72h) recovered in faeces following single oral dose of [14C] aliskiren hemifumarate at 3 mg.Kg-1 level in marmoset; type: ADME, organism-based, Callithrix jacchus, Feces; conditions: in vivo
CYP2C19 = CYP2C19 (Homo sapiens, UniProt P33261); test: Inhibitory activity of 20 uM SPP100 on 1214 Pmoles of cDNA-derived CYP2C19 enzyme in microsome prepared from human lymphoblastoid cell line; type: ADME, microsomes; set-up: conc 20 uM, interact cpd conc 50 uM; conditions: probe (S)-mephenytoin (50 uM)
Chain of CYP2C19 (P33261 whole entry): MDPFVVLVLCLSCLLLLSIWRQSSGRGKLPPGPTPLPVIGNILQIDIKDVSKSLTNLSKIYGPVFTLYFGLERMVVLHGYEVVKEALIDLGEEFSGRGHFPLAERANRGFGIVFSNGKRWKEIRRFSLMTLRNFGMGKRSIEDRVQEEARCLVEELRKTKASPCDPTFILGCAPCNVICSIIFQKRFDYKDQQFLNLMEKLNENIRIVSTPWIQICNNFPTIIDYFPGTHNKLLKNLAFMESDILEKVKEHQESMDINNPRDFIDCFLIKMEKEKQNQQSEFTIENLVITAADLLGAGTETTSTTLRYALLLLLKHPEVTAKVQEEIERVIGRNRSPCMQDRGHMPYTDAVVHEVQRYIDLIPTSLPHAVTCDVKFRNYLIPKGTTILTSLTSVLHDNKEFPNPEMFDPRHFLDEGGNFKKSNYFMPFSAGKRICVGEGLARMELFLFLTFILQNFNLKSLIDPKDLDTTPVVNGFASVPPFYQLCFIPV

CYP2A6 = molecular target: T2, CYP2A6 (Homo sapiens, UniProt P11509); test: Inhibitory activity of 20 uM SPP100 on 37 Pmoles of cDNA-derived CYP2A6 enzyme in microsome prepared from human lymphoblastoid cell line; type: ADME, microsomes; set-up: conc 20 uM, interact cpd conc 3 uM; conditions: probe coumarine
T2 sequence (P11509 whole entry): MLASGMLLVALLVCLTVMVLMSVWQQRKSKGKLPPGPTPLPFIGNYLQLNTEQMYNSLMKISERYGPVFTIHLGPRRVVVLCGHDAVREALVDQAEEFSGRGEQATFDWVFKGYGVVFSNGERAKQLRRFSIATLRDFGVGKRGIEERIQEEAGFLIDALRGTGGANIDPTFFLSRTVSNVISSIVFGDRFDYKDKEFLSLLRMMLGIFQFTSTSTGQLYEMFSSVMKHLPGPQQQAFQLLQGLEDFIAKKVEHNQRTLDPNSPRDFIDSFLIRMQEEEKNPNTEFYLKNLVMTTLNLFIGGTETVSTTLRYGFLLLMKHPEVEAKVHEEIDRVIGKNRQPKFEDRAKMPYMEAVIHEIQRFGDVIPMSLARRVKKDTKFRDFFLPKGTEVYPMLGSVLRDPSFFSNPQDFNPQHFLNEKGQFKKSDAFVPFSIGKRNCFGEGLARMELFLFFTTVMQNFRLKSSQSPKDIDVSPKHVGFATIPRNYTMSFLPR

[13] = Oral clearance of SPP100 following single oral dose of SPP100 150 mg capsule studied in healthy human; type: ADME, organism-based; conditions: plasma
[14] = Tmax of aliskiren hemifumarate following 2 week oral dosing of aliskiren hemifumarate at 50 mg.Kg-1 level studied on day 14 in male Callithrix jacchus; type: ADME, organism-based; conditions: marmoset, plasma
[15] = Tmax of aliskiren hemifumarate following single dosing of SPP100B oral solution at 80 mg level studied on day 1 in men; type: ADME, organism-based; conditions: male, human, plasma
[16] = AUC infinity of aliskiren hemifumarate following 2 week oral dosing of aliskiren hemifumarate at 50 mg.Kg-1 level studied on day 1 in male Callithrix jacchus; type: ADME, organism-based; conditions: marmoset, plasma, read-out: AUC infinity
[17] = Tmax of aliskiren hemifumarate following 2 week oral dosing of aliskiren hemifumarate at 50 mg.Kg-1 level studied on day 1 in female Callithrix jacchus; type: ADME, organism-based; conditions: marmoset, plasma
[18] = Cmax of unlabeled aliskiren hemifumarate following single oral dose of aliskiren hemifumarate at 500 mg.Kg-1 level in mouse; type: ADME, organism-based; conditions: TgRasH2, mouse, plasma
[19] = AUC(0-24h) of aliskiren hemifumarate following 2 week oral dosing of aliskiren hemifumarate at 100 mg.Kg-1 level studied on day 1 in female Callithrix jacchus; type: ADME, organism-based; conditions: marmoset, plasma
[20] = Bioavailability (0-168h) of unlabeled aliskiren hemifumarate following single oral administration of aliskiren hemifumarate at 3 mg.Kg-1 level in marmoset; type: ADME, organism-based, Callithrix jacchus; conditions: plasma
[21] = Cmax of aliskiren hemifumarate following repeated oral administration of [14C] aliskiren hemifumarate at 100 mg.Kg-1 level studied after 2h of dosing on day 10 in rat; type: ADME, organism-based, Albino HAN:WIST; conditions: in vivo, read-out: Cmax(10)
[22] = AUC (0-24h) of aliskiren hemifumarate following 4 week oral dietary dosing of aliskiren hemifumarate at 2000 mg.Kg-1 level in male mouse; type: ADME, organism-based; conditions: CB6F1-TGrasH2, mouse, plasma
[23] = Effect of 2 week oral dosing of aliskiren hemifumarate at 100 mg.Kg-1 level on blood urea nitrogen level in male Callithrix jacchus; type: toxicity, organism-based, Plasma; conditions: marmoset, 336 h
[24] = Absolute oral bioavailability of aliskiren hemifumarate after single oral administration of [14C] aliskiren hemifumarate in mouse; type: ADME, organism-based, TgRasH2, Plasma; conditions: in vivo, 500 mg/kg

Question: For `COCCCOc1cc(C[C@@H](C[C@H](N)[C@@H](O)C[C@H](C(=O)NCC([14CH3])([14CH3])C(N)=O)C(C)C)C(C)C)ccc1OC.O=C(O)/C=C/C(=O)O`, which Radiolabel recovery [1] is on record?
Answer: 10.4%

Question: And the CL (Cytochrome P450 4F2)?
Answer: 7.9 µL·min/nmol

Question: What about the Radiolabel recovery [2] of the same compound?
Answer: OUTCOME = Observed, VALUE = Highest radioactivity concentration was observed

Question: What about the Radiolabel recovery [3] of the same compound?
Answer: 0.01%

Question: And the Radiolabel recovery [4]?
Answer: 95.25%

Question: And the Radiolabel recovery [5]?
Answer: 72%

Question: What about the Radiolabel recovery [6] of the same compound?
Answer: 9.49%

Question: And the Radiolabel recovery [7]?
Answer: OUTCOME = Detected

Question: What about the Tmax [8] of the same compound?
Answer: 4.98 min

Question: And the Radiolabel recovery [9]?
Answer: OUTCOME = Observed, VALUE = residues of radioactivity remained in the carcass at 7 days after dosing

Question: Which results are given for `COCCCOc1cc(C[C@@H](C[C@H](N)[C@@H](O)C[C@H](C(=O)NCC(C)(C)C(N)=O)C(C)C)C(C)C)ccc1OC`?
Answer: Compound recovery [10]: > 40%; half-life [11]: 37 h; Compound recovery [12]: 78%; inhibition at 20 µM (CYP2C19): -1.9%; inhibition at 20 µM (CYP2A6): 2.6%; CL/F [13]: 5350 mL/min

Question: Which Tmax [14] does the source give for `COCCCOc1cc(C[C@@H](C[C@H](N)[C@@H](O)C[C@H](C(=O)NCC(C)(C)C(N)=O)C(C)C)C(C)C)ccc1OC.COCCCOc1cc(C[C@@H](C[C@H](N)[C@@H](O)C[C@H](C(=O)NCC(C)(C)C(N)=O)C(C)C)C(C)C)ccc1OC.O=C(O)/C=C/C(=O)O` [ALISKIREN FUMARATE] here?
Answer: 2 h

Question: And the Tmax [15]?
Answer: 2.8 h

Question: And the AUC(0-inf) [16]?
Answer: 64000 ng·h/mL

Question: What about the Tmax [17] of the same compound?
Answer: 1 h

Question: And the Cmax [18]?
Answer: 1450 nM

Question: And the AUC(0-t) at 24 h [19]?
Answer: 84000 ng·h/mL

Question: And the bioavailability [20]?
Answer: 3%

Question: What about the Cmax [21] of the same compound?
Answer: 357 nM

Question: What about the AUC(0-t) at 24 h [22] of the same compound?
Answer: 7720 ng·h/mL

Question: What about the BUN_CHANGE_BY [23] of the same compound?
Answer: 166%

Question: And the F [24]?
Answer: 1.5%
